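At the GI50, growth is halved. At the TGI there is no net growth.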
Assays:
Experiment in all cases: NCI tumour cell line growth inhibition, 384-well format
[1] = tested on: CAKI-1 renal
[2] = tested on: M14 melanoma
[3] = tested on: SN12C renal
[4] = tested on: RXF 393 renal
[5] = tested on: ACHN renal
[6] = tested on: MALME-3M melanoma
[7] = tested on: MDA-MB-435 melanoma
[8] = tested on: SK-MEL-5 melanoma
[9] = tested on: SK-MEL-2 melanoma
[10] = tested on: HCC-2998 colon
[11] = tested on: OVCAR-5 ovarian
[12] = tested on: T-47D breast
[13] = tested on: NCI/ADR-RES ovarian
[14] = tested on: SF-539 CNS
[15] = tested on: HOP-62 NSCLC
[16] = tested on: MDA-MB-468 breast
[17] = tested on: NCI-H322M lung
[18] = tested on: OVCAR-4 ovarian
[19] = tested on: LOX IMVI melanoma
[20] = tested on: MCF7 breast
[21] = tested on: NCI-H23 lung
[22] = tested on: COLO 205 colon
[23] = tested on: A498 renal
[24] = tested on: K-562 leukemia
[25] = tested on: DU-145 prostate
[26] = tested on: A549 NSCLC
[27] = tested on: 786-0 renal
[28] = tested on: SK-MEL-28 melanoma
[29] = tested on: CCRF-CEM leukemia
[30] = tested on: TK-10 renal
[31] = tested on: U251 glioblastoma
[32] = tested on: NCI-H226 lung
[33] = tested on: NCI-H460 NSCLC
[34] = tested on: SK-OV-3 ovarian
[35] = tested on: HOP-92 NSCLC
[36] = tested on: MDA-MB-231 breast
[37] = tested on: HT29 colon
[38] = tested on: OVCAR-3 ovarian
[39] = tested on: UO-31 renal
[40] = tested on: IGROV1 ovarian
[41] = tested on: NCI-H522 lung
[42] = tested on: KM12 colon
[43] = tested on: SNB-19 CNS
[44] = tested on: HL-60(TB) leukemia
[45] = tested on: SF-268 CNS
[46] = tested on: MOLT-4 leukemia
[47] = tested on: BT-549 breast
[48] = tested on: RPMI-8226 leukemia
[49] = tested on: UACC-257 melanoma
[50] = tested on: HCT-15 colon
[51] = tested on: SF-295 CNS
[52] = tested on: OVCAR-8 ovarian
[53] = tested on: SW-620 colon
[54] = tested on: UACC-62 melanoma
[55] = tested on: PC-3 prostate
[56] = tested on: SR leukemia
[57] = tested on: HCT-116 colon

## COCCNCc1ccc(-c2cc3nccc(Oc4ccc(NC(=O)C5(C(=O)Nc6ccc(F)cc6)CC5)cc4F)c3s2)nc1
[1]
  GI50: 1250 nM
  TGI: 2560 nM
[2]
  GI50: 1370 nM
  TGI: 2670 nM
[3]
  GI50: 346 nM
  TGI: 1670 nM
[4]
  GI50: 768 nM
  TGI: 2050 nM
[5]
  GI50: 682 nM
  TGI: 1960 nM
[6]
  GI50: 1030 nM
  TGI: 2200 nM
[7]
  GI50: 1370 nM
  TGI: 2680 nM
[8]
  GI50: 1130 nM
  TGI: 2350 nM
[9]
  GI50: 1410 nM
  TGI: 2710 nM
[10]
  GI50: 1480 nM
  TGI: 2810 nM
[11]
  GI50: 1630 nM
  TGI: 3100 nM
[12]
  GI50: 1160 nM
  TGI: 2390 nM
[13]
  GI50: 1560 nM
  TGI: 2950 nM
[14]
  GI50: 466 nM
  TGI: 1910 nM
[15]
  GI50: 1810 nM
  TGI: 3210 nM
[16]
  GI50: 1940 nM
  TGI: 3360 nM
[17]
  GI50: 1400 nM
  TGI: 2720 nM
[18]
  GI50: 1360 nM
  TGI: 2660 nM
[19]
  GI50: 2260 nM
  TGI: 3730 nM
[20]
  GI50: 1150 nM
  TGI: 2370 nM
[21]
  GI50: 414 nM
  TGI: 1960 nM
[22]
  GI50: 1140 nM
  TGI: 2370 nM
[23]
  GI50: 1410 nM
  TGI: 2720 nM
[24]
  GI50: 101 nM
  TGI: 219 nM
[25]
  GI50: 1750 nM
  TGI: 3140 nM
[26]
  GI50: 1280 nM
  TGI: 2560 nM
[27]
  GI50: 1550 nM
  TGI: 2890 nM
[28]
  GI50: 1430 nM
  TGI: 2750 nM
[29]
  GI50: 1420 nM
  TGI: 2730 nM
[30]
  GI50: 1690 nM
  TGI: 3110 nM
[31]
  GI50: 1450 nM
  TGI: 2780 nM
[32]
  GI50: 1580 nM
  TGI: 2960 nM
[33]
  GI50: 1450 nM
  TGI: 2790 nM
[34]
  GI50: 1180 nM
  TGI: 2420 nM
[35]
  GI50: 166 nM
  TGI: 1050 nM
[36]
  GI50: 1320 nM
  TGI: 2600 nM
[37]
  GI50: 574 nM
  TGI: 1840 nM
[38]
  GI50: 1590 nM
  TGI: 2960 nM
[39]
  GI50: 1380 nM
  TGI: 2700 nM
[40]
  GI50: 1360 nM
  TGI: 2670 nM
[41]
  GI50: 1280 nM
  TGI: 2540 nM
[42]
  GI50: 30.9 nM
  TGI: 1080 nM
[43]
  GI50: 1900 nM
  TGI: 3330 nM
[44]
  GI50: 1480 nM
  TGI: 2800 nM
[45]
  GI50: 1570 nM
  TGI: 2930 nM
[46]
  GI50: 477 nM
  TGI: 1630 nM
[47]
  GI50: 1620 nM
  TGI: 2980 nM
[48]
  GI50: 499 nM
  TGI: 1560 nM
[49]
  GI50: 186 nM
  TGI: 396 nM
[50]
  GI50: 1280 nM
  TGI: 2550 nM
[51]
  GI50: 396 nM
  TGI: 1950 nM
[52]
  GI50: 1570 nM
  TGI: 2920 nM
[53]
  GI50: 1260 nM
  TGI: 2530 nM
[54]
  GI50: 1240 nM
  TGI: 2510 nM
[55]
  GI50: 1690 nM
  TGI: 3090 nM
[56]
  GI50: 1130 nM
  TGI: 2340 nM
[57]
  GI50: 1100 nM
  TGI: 2310 nM

Source: PubChem BioAssay (NCI)
